From paper PMC10285260, “Processive kinetics in the three-step lanosterol 14α-demethylation reaction catalyzed by human cytochrome P450 51A1” (The Journal of Biological Chemistry, 2023)

Columns and labels:
human P450 51A1 [1] = target: T1, human P450 51A1 (Homo sapiens, UniProt Q16850); experiment: Single-turnover rapid-quench kinetics of [3-3H]-dihydrolanosterol oxidation (radio-HPLC); format: biochemical; parameters: made in house; host or cells: Escherichia coli
T1 sequence (Q16850 1-509): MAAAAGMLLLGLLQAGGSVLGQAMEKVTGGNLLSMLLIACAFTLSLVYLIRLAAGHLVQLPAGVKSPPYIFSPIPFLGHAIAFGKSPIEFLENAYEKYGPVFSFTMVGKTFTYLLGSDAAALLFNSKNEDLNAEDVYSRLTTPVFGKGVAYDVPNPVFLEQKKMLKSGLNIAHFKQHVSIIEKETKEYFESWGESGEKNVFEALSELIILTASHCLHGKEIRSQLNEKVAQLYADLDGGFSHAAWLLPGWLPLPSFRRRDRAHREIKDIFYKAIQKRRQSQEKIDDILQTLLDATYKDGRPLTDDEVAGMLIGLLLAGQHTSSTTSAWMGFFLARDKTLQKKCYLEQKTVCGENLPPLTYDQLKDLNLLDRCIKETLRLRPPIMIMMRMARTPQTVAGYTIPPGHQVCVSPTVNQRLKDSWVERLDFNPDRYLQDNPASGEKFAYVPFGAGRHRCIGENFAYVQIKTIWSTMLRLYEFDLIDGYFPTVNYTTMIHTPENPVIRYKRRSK
Protocol: All products were separated and quantified by radio-HPLC (Fig. S24).
Samples (held at 4 °C) were injected (45 μl) onto a Nova-Pak 3.9 mm × 150 mm (4 μm) octadecylsilane (C18) HPLC column (held at 23 °C). The products were separated at a flow rate of 1.0 ml min^−1 using an isocratic mobile phase composed of CH3CN (only) as was done for the LC-UV assays (above). The eluate from the column was mixed (1:2, v-v) with FlowLogic U scintillation cocktail, and radioactivity (^3H) was detected on a β-RAM Model 5 system (IN/US, LabLogic) (Fig. S24). Product formation was assessed as the relative contribution of each peak (in CPM) to the summed peak area of substrate and product(s).
The single-turnover experiments were performed using a KinTek rapid quench-flow apparatus (KinTek). This machine functions by forcing equal volumes (∼19 μl) of two separate solutions into a central mixing chamber, where the components are allowed to incubate for a predetermined period of time before an excess volume of quench solution (∼160 μl) stops the reaction and expels the mixture from the apparatus. […] After the predetermined incubation period, the reaction (37 °C) was quenched with HCl (1 M), and the mixture (∼200 μl) was collected into vials. The products of five identical reactions (time points) were combined and were extracted into CH2Cl2 (5 ml). An aliquot (4 ml) of the lower (organic) layer was removed into a fresh vial, and the extraction was repeated to maximize sample recovery. The pooled organic fraction (∼8 ml) was brought to dryness under a stream of N2 gas, and the residue was redissolved in 60 μl of CH3OH and transferred to LC vials for analysis.

human P450 51A1 [2] = target: T1, human P450 51A1; experiment: Stopped-flow koff measurements of P450 51A1-sterol complexes with ketoconazole trap; format: binding; parameters: made in house; host or cells: Escherichia coli; conditions: 23 °C, 10 μM ketoconazole trap, 1 μM P450 51A1
Protocol: All assays were done at 23 °C in an OLIS-RSM 1000 stopped-flow spectrophotometer, collecting data every 1 ms over a range of 332 to 565 nm with slit widths of 1.24 mm (8 nm bandpass) and gratings with 400 lines/mm and 500 nm blaze. One syringe contained 20 μM ketoconazole dissolved in 100 mM potassium phosphate buffer (pH 7.4). In a preliminary experiment in which this was mixed with an equal volume of 2 μM P450 51A1 (same buffer), the observed rate of binding (ΔA430) was 25 s^−1.
P450 51A1 (2 μM) was premixed with an equivalent concentration of each of the sterols (in HPCD). Each of these solutions was placed in a drive syringe and rapidly mixed with 20 μM ketoconazole (yielding final concentrations of 1 μM P450 51A1 and 10 μM ketoconazole). The rate of the ΔA430-A390 change was used as the koff rate, that is, the rate at which the sterol left the P450 and allowed it to bind to the trap ligand ketoconazole.

[3] = time 0.05 s, start 7 µM dihydrolanosterol

SMILES | concentration in single-turnover reaction (human P450 51A1 [1]; [3]) [µM] | concentration in single-turnover reaction (human P450 51A1 [1]; time 0.1 s) [µM] | concentration in single-turnover reaction (human P450 51A1 [1]; time 0.15 s) [µM] | concentration in single-turnover reaction (human P450 51A1 [1]; time 0.2 s) [µM] | concentration in single-turnover reaction (human P450 51A1 [1]; time 0.3 s) [µM] | concentration in single-turnover reaction (human P450 51A1 [1]; time 0.4 s) [µM] | concentration in single-turnover reaction (human P450 51A1 [1]; time 0.6 s) [µM] | concentration in single-turnover reaction (human P450 51A1 [1]; time 0.8 s) [µM] | concentration in single-turnover reaction (human P450 51A1 [1]; time 1 s) [µM] | concentration in single-turnover reaction (human P450 51A1 [1]; time 1.2 s) [µM] | concentration in single-turnover reaction (human P450 51A1 [1]; time 1.6 s) [µM] | concentration in single-turnover reaction (human P450 51A1 [1]; time 2 s) [µM] | concentration in single-turnover reaction (human P450 51A1 [1]; time 3 s) [µM] | concentration in single-turnover reaction (human P450 51A1 [1]; time 4 s) [µM] | concentration in single-turnover reaction (human P450 51A1 [1]; time 7 s) [µM] | koff (human P450 51A1 [2]) [s⁻¹] | other results
CC(C)CCCC(C)[C@H]1CC[C@@]2(C=O)C3=C(CC[C@]12C)[C@@]1(C)CC[C@H](O)C(C)(C)C1CC3 (stereo partly drawn) [14α-CHO dihydrolanosterol, 24,25-dihydro-14α-formyl lanosterol] | 0 | 0.8505 | 1.1396 | 1.6401 | 1.848 | 1.8837 | 1.7976 | 1.4126 | 1.4476 | 1.3349 | 0.8218 | 0.7105 | 0 | 0 | 0 | 0.059 ± 0.001 | 
CC(C)CCCC(C)[C@H]1CC[C@@]2(CO)C3=C(CC[C@]12C)[C@@]1(C)CC[C@H](O)C(C)(C)C1CC3 (stereo partly drawn) [14α-CH2OH dihydrolanosterol, 24,25-dihydro-14α-CH2OH lanosterol] | 2.2428 | 3.1584 | 2.7482 | 2.961 | 2.3331 | 1.9978 | 1.1711 | 0.9849 | 0.4431 | 0 | 0 | 0 | 0 | 0 | 0 | 0.022 ± 0.001 | 
CC(C)CCCC(C)[C@H]1CC[C@@]2(C)C3=C(CC[C@]12C)[C@@]1(C)CC[C@H](O)C(C)(C)C1CC3 (stereo partly drawn) [dihydrolanosterol, 24,25-dihydrolanosterol] | 4.7572 | 2.9911 | 2.8308 | 1.974 | 2.0671 | 1.9166 | 1.5253 | 1.5841 | 1.0563 | 1.1711 | 1.3601 | 1.0864 | 1.1137 | 0.3647 | 0 | 0.054 ± 0.01 | kobs/Kd (human P450 51A1 [1]; first step, 7 s^−1/0.23 μM): 3e+07 M⁻¹ s⁻¹; fraction of initial material persisting until > 4 s (human P450 51A1 [1]; single turnover): ~20%; time in which the reaction was completed (human P450 51A1 [1]; single turnover): 7 s; time of 50% decrease of substrate concentration (human P450 51A1 [1]; single turnover): 0.10 s; first-order exponential decay rate of substrate concentration (human P450 51A1 [1]; single turnover, 37 °C): 8.7 s⁻¹; apparent rate of overall oxidation to dihydro FF-MAS, single exponential fit (human P450 51A1 [1]; single turnover, even with the lag): 0.8 s⁻¹
